Values joined by “and” are separate entries in the source; they are usually repeats but may differ in a detail not shown here. Equal values may be shown once. Read-outs that look alike come from different tables or passages of the source.
What was measured:
[1] = test system: monomeric serine racemase (m-SR); settings: PC-12 cells; compound alone; cited from earlier work
mTOR pathway = test: pmTOR, pAkt, pERK, p4E-BP1 and pp70S6K levels in PC-12 cells; assay type: cell-based, rat
α7-nAChR [2] = settings: cited from earlier work
anesthesia = settings: cited from earlier work
α3β4-nAChR = settings: cited from earlier work; for IC50: α3β4-nAChR
[3] = test system: monomeric serine racemase (m-SR); test: Expression of monomeric serine racemase protein in PC-12 cells; assay type: cell-based, rat; settings: for Concentration of maximum increase in m-SR protein expression: gradual decline at higher concentrations
[4] = test system: mTOR and related proteins; settings: cited from earlier work
[5] = Brain tissue concentrations after administration to male Wistar rats
[6] = test system: (S)-nicotine-induced currents in PC-12 cells; settings: cited from earlier work
[7] = test system: mTOR and related proteins; test: Western blot of phosphorylated mTOR and related proteins in rat brain; settings: 20 mg·kg^−1 intravenous; for Increase in phosphorylation of mTOR and its downstream targets: rat pre-frontal cortex, 60-min post-administration, p<0.05
α7-nAChR [8] = settings: cited from earlier work; remark: listed apart in the source
NMDAR = settings: cited from earlier work
[9] = after (R,S)-ketamine 40 mg·kg^−1 intraperitoneal, 10 min
[10] = after (R,S)-ketamine 40 mg·kg^−1 intraperitoneal, 30 min
[11] = after (R,S)-ketamine 40 mg·kg^−1 intraperitoneal, 60 min
[12] = after (R,S)-ketamine 40 mg·kg^−1 intraperitoneal, 240 min
[13] = after (R,S)-norketamine 20 mg·kg^−1 intravenous, 10 min
[14] = after (R,S)-norketamine 20 mg·kg^−1 intravenous, 20 min
[15] = after (R,S)-norketamine 20 mg·kg^−1 intravenous, 60 min
[16] = after (R,S)-norketamine 20 mg·kg^−1 intravenous, 240 min
[17] = time-dependent, significant in the 20- and 60-min samples

## CN1CCC[C@H]1c1cccnc1 [(S)-nicotine]
[1]
  Effect on expression of m-SR: no effect
mTOR pathway; (S)-nicotine alone, 2 μM, 1 h
  Effect on the phosphorylation of pmTOR, p4E-BP1, pp70S6K, pERK1/2 and pAkt: no effect

## CCN1C[C@]2(COC(=O)c3ccccc3N3C(=O)C[C@H](C)C3=O)CC[C@H](OC)[C@@]34[C@@H]5C[C@H]6[C@H](OC)[C@@H]5[C@](O)(C[C@@H]6OC)[C@@](O)([C@@H](OC)[C@H]23)[C@@H]14 [methyllycaconitine]
[1]
  Effect on expression of m-SR: significantly increases
mTOR pathway
  Levels of phosphorylated mTOR, 4E-BP1, p70S6K, ERK1/2 and Akt and of m-SR protein: significant increases

## CNC1(c2ccccc2Cl)CCCCC1=O (racemic) [(R,S)-ketamine]
mTOR pathway
  Concentration required to produce the maximum effect on the mTOR pathway and m-SR expression: 600 nM
  Levels of phosphorylated mTOR, 4E-BP1, p70S6K, ERK1/2 and Akt and of m-SR protein: significant increases
mTOR pathway; 60 min
  Concentration above which the increase lost significance: greater than 2000 nM
  Concentrations eliciting significant increases in protein phosphorylation: 400 to 600 nM
α7-nAChR [2]
  IC50: 20 µM
anesthesia; rat
  Anesthetic activity: produce anesthesia
α3β4-nAChR
  IC50: 3 µM
[3]; 1000nM
  Increase in expression of serine racemase: ~ 2 fold
[3]; 36 h
  Concentrations with significant increase in m-SR expression (ANOVA): 600 nM and 1000 nM
  Concentration of maximum increase in m-SR protein expression: 600 nM
[4]; Wistar rats, peaked at 30–60 min post-administration
  Increase in the phosphorylated forms of mTOR pathway proteins: ~ 1.5 fold
[4]
  Increase in pERK: 1.5 fold
[5]; [9]
  Rat brain tissue conc. of (2S,6S;2R,6R)-HNK: 30 ± 5 µM/g
  Rat brain tissue conc. of (R,S)-Ket: 137 ± 6 µM/g
  Rat brain tissue conc. of (R,S)-norKet: 21 ± 8 µM/g
[5]; [10]
  Rat brain tissue conc. of (2S,6S;2R,6R)-HNK: 21 ± 8 µM/g
  Rat brain tissue conc. of (R,S)-Ket: 52 ± 44 µM/g
  Rat brain tissue conc. of (R,S)-norKet: 34 ± 6 µM/g
[5]; [11]
  Rat brain tissue conc. of (2S,6S;2R,6R)-HNK: 25 ± 5 µM/g
  Rat brain tissue conc. of (R,S)-Ket: 19 ± 9 µM/g
  Rat brain tissue conc. of (R,S)-norKet: 16 ± 4 µM/g
[5]; [12]
  Rat brain tissue conc. of (2S,6S;2R,6R)-HNK: 11 ± 5 µM/g
  Rat brain tissue conc. of (R,S)-Ket: 0.6 ± 0.1 µM/g
  Rat brain tissue conc. of (R,S)-norKet: 1.3 ± 0.3 µM/g
[6]
  IC50: 5 µM

## NC1(c2ccccc2Cl)CCCCC1=O (racemic) [(R,S)-norketamine]
[7]
  Relative pAkt levels: not impacted
  Increase in phosphorylation of mTOR and its downstream targets: > 25 fold
[7]; 20- and 60-min samples
  Levels of phosphorylated forms of mTOR, pp70S6K and p4E-BP1: significant increases
[7]; 20-min sample
  Increase in pmTOR levels: 15 fold
[7]; 60-min sample
  Increase in pmTOR levels: 25 fold
[7]; significant
  Increase in pERK level: ~ 6 fold
mTOR pathway
  Levels of phosphorylated mTOR, 4E-BP1, p70S6K, ERK1/2 and Akt and of m-SR protein: significant increases
mTOR pathway; 60 min
  Concentration above which the increase lost significance: greater than 250 nM
anesthesia; rat
  Anesthetic activity: produce anesthesia
α3β4-nAChR
  IC50: 9 µM
[3]; 10nM
  Increase in expression of serine racemase: ~ 2 fold
[3]; 36 h
  Concentration of maximum increase in m-SR protein expression: 10 nM
[5]; [13]
  Rat brain tissue conc. of (2S,6S;2R,6R)-HNK: 16 ± 3 µM/g
  Rat brain tissue conc. of (R,S)-norKet: 88 ± 8 µM/g
[5]; [14]
  Rat brain tissue conc. of (2S,6S;2R,6R)-HNK: 16 ± 3 µM/g
  Rat brain tissue conc. of (R,S)-norKet: 51 ± 4 µM/g
[5]; [15]
  Rat brain tissue conc. of (2S,6S;2R,6R)-HNK: 8.9 ± 0.7 µM/g
  Rat brain tissue conc. of (R,S)-norKet: 20 ± 7 µM/g
[5]; [16]
  Rat brain tissue conc. of (2S,6S;2R,6R)-HNK: 2.1 ± 0.4 µM/g
  Rat brain tissue conc. of (R,S)-norKet: 1.0 ± 0.1 µM/g

## N[C@@]1(c2ccccc2Cl)CCC[C@@H](O)C1=O [(2S,6S;2R,6R)-hydroxynorketamine]
anesthesia; rat
  Anesthetic activity: no anesthetic effect
anesthesia; rat; ref 9;2R,6R)-Hydroxynorketamine
  Anesthetic activity: lacks anesthetic activity

## N[C@@]1(c2ccccc2Cl)CCC[C@@H](O)C1=O [(2R,6R)-hydroxynorketamine]
α7-nAChR [8]
  IC50: < 0.1 µM
α3β4-nAChR
  Activity at the α3β4-nAChR: not active
NMDAR
  Activity at the NMDAR: not active

## N[C@]1(c2ccccc2Cl)CCC[C@H](O)C1=O
[7]; increased in the 20- and 60-min samples
  Relative levels of pERK1/2 and pAkt: did not reach statistical significance
[7]; [17]
  Increase in p4E-BP1: ~ 2.0 fold
  Increase in pmTOR: ~ 2.0 fold
  Increase in pp70S6K: ~ 2.5 fold
[7]
  Increase in phosphorylation of mTOR and its downstream targets: > 2 fold
α7-nAChR [8]
  IC50: < 0.1 µM
mTOR pathway
  Levels of phosphorylated mTOR, 4E-BP1, p70S6K, ERK1/2 and Akt and of m-SR protein: significant increases
mTOR pathway; 60 min
  Concentration above which pmTOR increase was markedly reduced: greater than 1 nM
α3β4-nAChR
  Activity at the α3β4-nAChR: not active
  IC50: > 300 µM
NMDAR
  Activity at the NMDAR: not active
[3]; 0.05nM
  Increase in expression of serine racemase: ~ 2 fold
[3]; 36 h
  Concentration of maximum increase in m-SR protein expression: 0.05 nM

— article PMC4061505 (Anesthesiology, 2014)
